Results from the NIST ThermoML archive (doi:10.1021/je060457+).

Test: xn = mol fraction of the nth substance listed
Conditions: 101 kPa, Liquid; for viscosity: Capillary tube (Ostwald / Ubbelohde) method; for mass density: Vibrating tube method

CNCCO [2-(methylamino)ethanol] + O
Conditions | mass density [kg/m3] | viscosity [mPa·s]
298.15 K, x1 = 0.0493 | – | 1.801
298.15 K, x1 = 0.0499 | 996.45 | –
298.15 K, x1 = 0.0657 | 996.78 | 2.258
298.15 K, x1 = 0.1054 | 997.9 | 3.804
298.15 K, x1 = 0.1987 | 996.03 | 8.788
298.15 K, x1 = 0.2946 | – | 13.51
298.15 K, x1 = 0.301 | 988.25 | –
298.15 K, x1 = 0.3834 | 980.24 | –
298.15 K, x1 = 0.388 | – | 18.21
298.15 K, x1 = 0.5041 | 968.81 | 19.98
298.15 K, x1 = 0.6 | 960.3 | 19.11
298.15 K, x1 = 0.6974 | 953.64 | –
298.15 K, x1 = 0.7003 | – | 17.02
298.15 K, x1 = 0.8009 | 946.63 | –
298.15 K, x1 = 0.8019 | – | 14.38
298.15 K, x1 = 0.898 | – | 12.46
298.15 K, x1 = 0.9031 | 940.86 | –
298.15 K, x1 = 1 | 936.18 | 10.51
303.15 K, x1 = 0.0493 | – | 1.556
303.15 K, x1 = 0.0499 | 994.49 | –
303.15 K, x1 = 0.0657 | 994.58 | 1.927
303.15 K, x1 = 0.1054 | 995.16 | 3.169
303.15 K, x1 = 0.1987 | 992.48 | 6.987
303.15 K, x1 = 0.2946 | – | 10.53
303.15 K, x1 = 0.301 | 984.47 | –
303.15 K, x1 = 0.3834 | 976.43 | –
303.15 K, x1 = 0.388 | – | 14.11
303.15 K, x1 = 0.5041 | 965 | 15.44
303.15 K, x1 = 0.6 | 956.5 | 15.05
303.15 K, x1 = 0.6974 | 949.81 | –
303.15 K, x1 = 0.7003 | – | 13.42
303.15 K, x1 = 0.8009 | 942.76 | –
303.15 K, x1 = 0.8019 | – | 11.43
303.15 K, x1 = 0.898 | – | 10
303.15 K, x1 = 0.9031 | 936.96 | –
303.15 K, x1 = 1 | 932.26 | 8.522
313.15 K, x1 = 0.0493 | – | 1.195
313.15 K, x1 = 0.0499 | 990.11 | –
313.15 K, x1 = 0.0657 | 989.79 | 1.45
313.15 K, x1 = 0.1054 | 989.39 | 2.272
313.15 K, x1 = 0.1987 | 985.28 | 4.622
313.15 K, x1 = 0.2946 | – | 6.748
313.15 K, x1 = 0.301 | 976.815 | –
313.15 K, x1 = 0.3834 | 968.73 | –
313.15 K, x1 = 0.388 | – | 8.852
313.15 K, x1 = 0.5041 | 957.32 | 9.719
313.15 K, x1 = 0.6 | 948.83 | 9.424
313.15 K, x1 = 0.6974 | 942.12 | –
313.15 K, x1 = 0.7003 | – | 8.652
313.15 K, x1 = 0.8009 | 935.01 | –
313.15 K, x1 = 0.8019 | – | 7.547
313.15 K, x1 = 0.898 | – | 6.716
313.15 K, x1 = 0.9031 | 929.16 | –
313.15 K, x1 = 1 | 924.42 | 5.833
323.15 K, x1 = 0.0493 | – | 0.9978
323.15 K, x1 = 0.0499 | 985.07 | –
323.15 K, x1 = 0.0657 | 984.41 | 1.133
323.15 K, x1 = 0.1054 | 983.17 | 1.643
323.15 K, x1 = 0.1987 | 977.79 | 3.242
323.15 K, x1 = 0.2946 | – | 4.581
323.15 K, x1 = 0.301 | 968.97 | –
323.15 K, x1 = 0.3834 | 960.83 | –
323.15 K, x1 = 0.388 | – | 5.886
323.15 K, x1 = 0.5041 | 949.46 | 6.458
323.15 K, x1 = 0.6 | 940.99 | 6.319
323.15 K, x1 = 0.6974 | 934.27 | –
323.15 K, x1 = 0.7003 | – | 5.881
323.15 K, x1 = 0.8009 | 927.12 | –
323.15 K, x1 = 0.8019 | – | 5.229
323.15 K, x1 = 0.898 | – | 4.725
323.15 K, x1 = 0.9031 | 921.24 | –
323.15 K, x1 = 1 | 916.48 | 4.177
333.15 K, x1 = 0.0493 | – | 0.817
333.15 K, x1 = 0.0499 | 979.47 | –
333.15 K, x1 = 0.0657 | 978.52 | 0.9621
333.15 K, x1 = 0.1054 | 976.55 | –
333.15 K, x1 = 0.1987 | 970.11 | 2.379
333.15 K, x1 = 0.2946 | – | 3.261
333.15 K, x1 = 0.301 | 960.9 | –
333.15 K, x1 = 0.3834 | 952.72 | –
333.15 K, x1 = 0.388 | – | 4.107
333.15 K, x1 = 0.5041 | 941.41 | 4.499
333.15 K, x1 = 0.6 | 932.98 | 4.429
333.15 K, x1 = 0.6974 | 926.28 | –
333.15 K, x1 = 0.7003 | – | 4.177
333.15 K, x1 = 0.8009 | 919.16 | –
333.15 K, x1 = 0.8019 | – | 3.78
333.15 K, x1 = 0.898 | – | 3.463
333.15 K, x1 = 0.9031 | 913.22 | –
333.15 K, x1 = 1 | 908.46 | 3.108
343.15 K, x1 = 0.0493 | – | 0.6997
343.15 K, x1 = 0.0499 | 973.37 | –
343.15 K, x1 = 0.0657 | 972.17 | 0.7903
343.15 K, x1 = 0.1054 | 969.57 | 1.023
343.15 K, x1 = 0.1987 | 962.17 | 1.747
343.15 K, x1 = 0.2946 | – | 2.416
343.15 K, x1 = 0.301 | 952.65 | –
343.15 K, x1 = 0.3834 | 944.43 | –
343.15 K, x1 = 0.388 | – | 2.986
343.15 K, x1 = 0.5041 | 933.17 | 3.255
343.15 K, x1 = 0.6 | 924.8 | 3.227
343.15 K, x1 = 0.6974 | 918.16 | –
343.15 K, x1 = 0.7003 | – | 3.075
343.15 K, x1 = 0.8009 | 911 | –
343.15 K, x1 = 0.8019 | – | 2.827
343.15 K, x1 = 0.898 | – | 2.618
343.15 K, x1 = 0.9031 | 905.06 | –
343.15 K, x1 = 1 | 900.3 | 2.385
